Test results from US11821109B2, “Compartmentalised combinatorial chemistry by microfluidic control” (President and Fellows of Harvard College, priority 2004, dated 2023).
pKi: −log10 of the molar value.

Experiments:
[1] = target: T1, E. coli β-galactosidase (LacZ) (Escherichia coli, UniProt P00722); test: LacZ inhibition assay in microfluidic droplets with fluorogenic substrate FMG; type: biochemical
Protocol: In the enzyme inhibition assay, the rate of catalysis is determined by using a non-fluorescent substrate for LacZ, fluorescein mono-β-D-galactoside (FMG), and measuring the appearance of the fluorescent product, fluorescein (excitation […], emission 514 nm). All components of the LacZ inhibition assay are dissolved in assay buffer (10 mM MgCl2, 50 mM NaCl, 1 mM DTT, 100 μg/ml BSA, 10
Leading into each droplet forming module (FIG. 15) are two TEFLON® tubes leading from syringe pumps. The channels leading from each tube merge to create a single flow before entering the droplet forming module. The two syringes feeding into the first droplet forming module contain, (a) 50 μM PETG in assay buffer, and (b), assay buffer. The two syringes feeding into the second droplet forming module contain, (c) 100 nM LacZ in assay buffer, and (d), assay buffer. The two syringes feeding into the third droplet forming module contain, (e) 5 mM FMG in assay buffer, and (f), assay buffer. The final concentration of each component in each droplet is independently controllable by adjusting relative flow rates of each component and buffer solution while maintaining a constant combined flow rate from both syringes.
The first droplet fusion mixes the inhibitor (PETG) with the enzyme (LacZ). After the combined droplet has spent two minutes in a delay line it is fused with a third droplet containing the fluorogenic enzyme substrate (FMG). Finally, after all the components are mixed the reaction is observed by measuring fluorescence of individual droplets or by integrating fluorescent light from droplets with the same concentration of each component during 10-second exposure time at multiple points in the second 10 min long delay line. Each fluorescence intensity value at different positions is proportional to the amount of product at different reaction times. Rate of product formation is linear during initial reaction time and initial rate (v) can be determined from linear fitting. […]

[2] = target: T1, E. coli β-galactosidase (LacZ); conditions: Huang, 1991, cited from earlier work
[3] = Compartmentalisation of small molecules in water-in-fluorocarbon emulsions (exchange between microdroplets); type: physicochemical; conditions: water-in-perfluorooctyl bromide emulsion; 24 hours after mixing
Protocol: Water-in-fluorocarbon emulsions containing 95% (v/v) perfluorooctyl bromide, 5% (v/v) phosphate buffered saline containing the molecule of interest in solution, and 2% (w/v) C8F17C11H22OP(O)[N(CH2CH2)2O]2 (F8H1 IDMP) as surfactant were formed essentially as (Sadtler et al., 1996) by extrusion (15 times) through 14 μm filters (Osmonics) or by homogenising for 5 min at 25,000 r.p.m. using an Ultra-Turrax T8 Homogenizer (DCA) with a 5 mm dispersing tool. Emulsions were made containing a series of small fluorescent molecules dissolved in the aqueous phase at concentrations from […] to 2 mM. These molecules, including calcein, texas red, fluorescein, coumarin 102, 7-hydroxycoumarm-3-carboxylic acid and 7-diethylamino-4-methyl coumarin (coumarin 1), had molecular weights from 203 to 625 Da and Log P values—calculated using SRC's Log Kow/KowWin Program (Meylan and Howard, 1995)—ranging from −0.49 to 4.09. […]
Compartmentalisation of small molecules in a water-in-fluorocarbon emulsions made using microfluidic systems. […] These molecules, including calcein, texas red, fluorescein, coumarin 102, 7-hydroxycoumarin-3-carboxylic acid and 7-diethylamino-4-methyl coumarin (coumarin 1), had molecular weights from 203 to 625 Da and Log P values—calculated using SRC's Log Kow/KowWin Program (Meylan and Howard, 1995)—ranging from −0.49 to 4.09. […]

[4] = target: T2, human recombinant PTP1B, residues 1-322 (Homo sapiens, UniProt P18031); test: Screening for PTP1B inhibitors in microcapsules in a microfluidic system, fluorogenic substrate DiFMUP; type: biochemical; conditions: Example 2, 100 μM compound solution, PTP1B 50 mU/ml
T2 construct: human recombinant PTP1B, residues 1-322; purchased Biomol Research Laboratories, Inc
T2 sequence (P18031 1-322): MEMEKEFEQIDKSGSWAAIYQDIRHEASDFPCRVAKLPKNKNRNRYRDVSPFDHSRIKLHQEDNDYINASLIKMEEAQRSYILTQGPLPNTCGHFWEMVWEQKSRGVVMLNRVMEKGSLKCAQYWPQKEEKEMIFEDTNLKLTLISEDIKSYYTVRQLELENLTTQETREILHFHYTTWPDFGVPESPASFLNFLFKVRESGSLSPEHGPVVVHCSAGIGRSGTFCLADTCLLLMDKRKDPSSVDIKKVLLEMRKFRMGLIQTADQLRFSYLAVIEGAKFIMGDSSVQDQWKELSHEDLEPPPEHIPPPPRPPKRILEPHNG
Protocol: All water-soluble reagents are dissolved in (25 mM HEPES, pH 7.4, 125 mM NaCl, 1 mM EDTA), a buffer compatible with PTP1B activity. […] Each microcapsule containing target enzyme is fused with a microcapsule containing compound 2 or a microcapsule containing hydrocinnamic acid. Microcapsules containing either compound 2 or hydrocinnamic acid can be formed by switching between injection with syringes containing compound 2 and hydrocinnamic acid.
After microcapsule fusion the contents are rapidly mixed. After this point the microcapsules are run for up to 1 min through a 60 cm long microchannel (to allow inhibitor binding). This microchannel is then merged with a second microchannel containing aqueous microcapsules containing the fluorogenic PTP1B substrate 6,8-difluoro-4-methylumbelliferyl phosphate (DiFMUP) (Molecular Probes) in 25 mM HEPES, pH 7.4, 125 mM NaCl, 1 mM EDTA and the microcapsules fused pairwise. […] Fluorescence of the microcapsules due to production of DiFMU (excitation/emmission maxima 358/452 nm; blue fluorescence) is measured. […]
The 96 mixtures are distributed into 96 wells of a microtitre plate. […] Inhibitors reduce the amount of non-fluorescent substrate (DiFMUP) converted to the dephosphorylated product (DiFMU; excitation/emmission maxima 358/452 nm; blue fluorescence). Microcapsule fluorescence is then analysed.

PTP1B = target: T3, PTP1B (Homo sapiens, UniProt P18031); conditions: cited from earlier work
T3 sequence (P18031 1-435): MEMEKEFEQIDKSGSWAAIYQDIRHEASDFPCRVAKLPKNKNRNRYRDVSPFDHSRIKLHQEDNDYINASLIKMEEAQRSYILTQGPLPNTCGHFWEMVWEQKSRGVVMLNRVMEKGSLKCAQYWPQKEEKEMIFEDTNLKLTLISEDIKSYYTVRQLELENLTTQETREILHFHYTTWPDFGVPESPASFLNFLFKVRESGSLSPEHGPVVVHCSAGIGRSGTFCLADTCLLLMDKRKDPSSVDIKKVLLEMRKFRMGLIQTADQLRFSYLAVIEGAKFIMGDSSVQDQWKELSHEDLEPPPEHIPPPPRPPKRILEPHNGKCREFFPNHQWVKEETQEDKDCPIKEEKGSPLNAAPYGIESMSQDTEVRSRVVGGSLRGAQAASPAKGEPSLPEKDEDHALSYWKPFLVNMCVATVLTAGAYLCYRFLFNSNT

[5] = 30 nM LacZ, 0 to 13 μM PETG, 10 to 700 μM FMG

T1 sequence (P00722 2-1024): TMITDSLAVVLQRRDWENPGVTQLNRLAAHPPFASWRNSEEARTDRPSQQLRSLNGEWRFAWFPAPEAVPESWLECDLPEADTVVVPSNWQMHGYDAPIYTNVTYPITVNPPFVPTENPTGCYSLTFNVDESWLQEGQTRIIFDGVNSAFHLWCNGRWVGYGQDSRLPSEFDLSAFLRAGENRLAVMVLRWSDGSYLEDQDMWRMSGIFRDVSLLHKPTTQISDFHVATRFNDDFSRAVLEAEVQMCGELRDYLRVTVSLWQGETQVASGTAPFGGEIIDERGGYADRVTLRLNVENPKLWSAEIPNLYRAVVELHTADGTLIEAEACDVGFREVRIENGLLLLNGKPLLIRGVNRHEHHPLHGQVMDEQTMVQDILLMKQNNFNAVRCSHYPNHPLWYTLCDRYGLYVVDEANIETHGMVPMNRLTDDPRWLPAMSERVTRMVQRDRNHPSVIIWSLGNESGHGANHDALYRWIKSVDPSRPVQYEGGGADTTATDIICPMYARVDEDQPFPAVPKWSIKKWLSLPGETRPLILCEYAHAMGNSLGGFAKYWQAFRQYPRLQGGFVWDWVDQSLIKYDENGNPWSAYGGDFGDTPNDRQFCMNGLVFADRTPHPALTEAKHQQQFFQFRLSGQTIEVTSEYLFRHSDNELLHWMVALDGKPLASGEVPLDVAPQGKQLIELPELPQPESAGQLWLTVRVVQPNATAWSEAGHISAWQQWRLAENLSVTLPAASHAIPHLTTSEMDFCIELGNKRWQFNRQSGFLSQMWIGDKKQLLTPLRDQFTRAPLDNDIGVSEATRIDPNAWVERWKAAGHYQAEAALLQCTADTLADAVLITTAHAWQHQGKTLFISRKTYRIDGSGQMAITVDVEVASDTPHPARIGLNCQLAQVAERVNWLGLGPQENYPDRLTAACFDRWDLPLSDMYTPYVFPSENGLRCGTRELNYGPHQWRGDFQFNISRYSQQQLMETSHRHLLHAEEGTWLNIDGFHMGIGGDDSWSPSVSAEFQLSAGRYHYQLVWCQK

O=C1OC2(c3ccc(O)cc3Oc3cc(O[C@@H]4O[C@H](CO)[C@H](O)[C@H](O)[C@H]4O)ccc32)c2ccccc21 (stereo partly drawn) [FMG, fluorescein mono-β-D-galactoside]
XM of FMG for LacZ as determined [1, 5]: within 20% of the previously published value
XM of FMG for LacZ, previously published value [2]: 118 µM

OCC1OC(SCCc2ccccc2)C(O)C(O)C1O [PETG, phenylethyl β-D-thiogalactopyranoside]
Ki of PETG for LacZ as determined [1, 5]: within the range of the previously published value
Mode of inhibition ([1]; Lineweaver-Burk plot): competitive
pKi ([2]; read-out: Ki of PETG for LacZ, previously published value): 6.01

O=C(O)CN(CC(=O)O)Cc1cc2c(cc1O)Oc1cc(O)c(CN(CC(=O)O)CC(=O)O)cc1C21OC(=O)c2ccccc21 [calcein]
Exchange between microdroplets/compartments [3]: No exchange

O=C(O)CCc1ccccc1 [hydrocinnamic acid]
Fluorescence of the microcapsules due to production of DiFMU [4]: exhibiting blue fluorescence
PTP1B inhibitor or not (statement) (PTP1B): not a PTP1B inhibitor

texas red
Exchange between microdroplets/compartments [3]: No exchange
